The values below come from patent US20210047297A1, “4-(3-AMINO-6-FLUORO-1H-INDAZOL-5-YL)-1,2,6-TRIMETHYL-1,4-DIHYDROPYRIDINE-3,5-DIC ARBONITRILE COMPOUNDS FOR TREATING HYPERPROLIFERATIVE DISORDERS” (Bayer Pharma Aktiengesellschaft, priority 2018, published 2021).

The structures appear in SMILES notation.

The target of this assay is T1, GST-AMPKα2/ß1/γ1 complex (full-length human AMPKα2) (Homo sapiens, UniProt P54619+P54646+Q9Y478).
T1 construct: purchased Carna Biosciences 02-114; host or cells: baculovirus expression system
T1 sequence (P54646 whole entry): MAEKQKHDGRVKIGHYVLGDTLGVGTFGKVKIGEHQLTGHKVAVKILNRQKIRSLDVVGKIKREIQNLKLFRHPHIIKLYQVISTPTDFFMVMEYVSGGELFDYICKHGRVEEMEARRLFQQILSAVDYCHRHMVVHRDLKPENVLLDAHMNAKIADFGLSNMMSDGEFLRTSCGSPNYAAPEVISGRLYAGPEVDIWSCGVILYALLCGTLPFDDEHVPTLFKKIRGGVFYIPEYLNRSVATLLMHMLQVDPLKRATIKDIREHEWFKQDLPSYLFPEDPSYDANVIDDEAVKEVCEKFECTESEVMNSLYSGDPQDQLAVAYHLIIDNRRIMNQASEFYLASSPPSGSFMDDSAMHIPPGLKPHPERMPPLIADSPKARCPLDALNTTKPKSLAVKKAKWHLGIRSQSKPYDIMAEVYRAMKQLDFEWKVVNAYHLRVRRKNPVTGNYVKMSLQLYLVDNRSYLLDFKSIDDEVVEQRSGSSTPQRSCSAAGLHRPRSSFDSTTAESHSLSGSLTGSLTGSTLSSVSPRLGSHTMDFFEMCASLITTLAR
T1 sequence (Q9Y478 whole entry partner): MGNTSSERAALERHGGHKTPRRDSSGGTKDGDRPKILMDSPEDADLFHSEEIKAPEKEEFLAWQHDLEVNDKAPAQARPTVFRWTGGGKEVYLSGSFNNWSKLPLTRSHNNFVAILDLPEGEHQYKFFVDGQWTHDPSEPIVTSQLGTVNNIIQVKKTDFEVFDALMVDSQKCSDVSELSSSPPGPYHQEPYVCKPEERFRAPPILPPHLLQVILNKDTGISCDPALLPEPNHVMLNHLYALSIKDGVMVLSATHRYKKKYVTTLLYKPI
T1 sequence (P54619 whole entry partner): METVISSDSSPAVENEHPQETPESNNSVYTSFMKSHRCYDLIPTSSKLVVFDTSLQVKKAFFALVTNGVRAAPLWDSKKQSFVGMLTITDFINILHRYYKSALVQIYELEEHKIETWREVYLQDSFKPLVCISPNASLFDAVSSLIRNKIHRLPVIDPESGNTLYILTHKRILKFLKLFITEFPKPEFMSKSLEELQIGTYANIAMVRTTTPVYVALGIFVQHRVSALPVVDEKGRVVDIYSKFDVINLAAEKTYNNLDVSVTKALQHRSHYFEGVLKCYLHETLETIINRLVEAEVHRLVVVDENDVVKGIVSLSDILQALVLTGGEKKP
Nature of the assay: AMPK high ATP assay (TR-FRET-based AMPK activity inhibition assay). Particulars: ATP concentration of 1 mM; median; read-out: AMPK high ATP assay IC50 [mol/l] (median). The class given is biochemical. How it is done: AMPK inhibitory activity of compounds of the present invention at an ATP concentration of 1 mM was quantified employing the TR-FRET-based AMPK activity inhibition assay as described in the following paragraphs.
Recombinant fusion protein of N-terminal Glutathion-S-Transferase (GST) and full-length human AMPKα2 [1-552(end) amino acids of accession number NP_006243.2] co-expressed with GST-PRKAB1 [1-270(end) amino acids of accession number NP_006244.2] and PRKAG1 [1-331(end) amino acids of accession number NP_002724.1] using a baculovirus expression system, purified as GST-AMPKα2/ß1/γ1 complex by using glutathione sepharose chromatography, activated with His-tagged CaMKK1 and subsequently purified by using glutathione sepharose chromatography, was purchased from Carna Biosciences (product number 02-114) and used as kinase. As substrate for the kinase reaction biotinylated peptide biotin-Ahx-HMRSAMSFAEPG (C-terminus in amide form) was used which can be purchased e.g. form the company Biosyntan (Berlin-Buch, Germany). For the assay 50 nl of a 100 fold concentrated solution of the test compound in DMSO was pipetted into either a black low volume 384 well microtiter plate or a black 1536 well microtiter plate (both Greiner Bio-One, Frickenhausen, Germany), 2 μl of a solution of GST-AMPKα2/ß1/γ1 in aqueous assay buffer [50 mM Hepes pH 7.5, 10 mM MgCl2, 5 mM β-glycerophosphate, 2.5 mM dithiothreitol (DTT), 0.5 mM EGTA, 0.01% (w/v) bovine γ-globulin (Sigma-Aldrich, #G5009), 0.01% (v/v) Triton X-100 (Sigma-Aldrich, #T9284)] were added and the mixture was incubated for 15 min at 22° C. to allow pre-binding of the test compounds to the enzyme before the start of the kinase reaction. Then the kinase reaction was started by the addition of 3 μl of a solution of adenosine-tri-phosphate (ATP, 1.67 mM=>final conc. in the 5 μl assay volume is 1 mM), adenosine-mono-phosphate (AMP, 3.33 μM=>final conc. in the 5 μl assay volume is 2 μM), and substrate (0.83 μM=>final conc. in the 5 μl assay volume is 0.5 μM) in assay buffer and the resulting mixture was incubated for a reaction time of 30 min at 22° C. The concentration of GST-AMPK α2/ß1/γ1 was adjusted depending of the activity of the enzyme lot and was chosen appropriate to have the assay in the linear range, a typical concentration was 0.08 nM. The reaction was stopped by the addition of 3 μl of a solution of TR-FRET detection reagents (0.2 μM streptavidine-XL665 [Cisbio Bioassays, Codolet, France] and 3.33 nM anti-phosho-Serine antibody [Merck Millipore, “STK antibody”, cat. #35-002] and 3.33 nM anti mouse IgG-Tb cryptate, a Terbium-cryptate labelled anti-mouse IgG antibody [Cisbio Bioassays, Codolet, France] in an aqueous EDTA-solution (166.7 mM EDTA, 0.06 (w/v) bovine serum albumin in 50 mM HEPES pH 7.5).
The resulting mixture was incubated 1 h at 22° C. to allow the formation of complex between the phosphorylated biotinylated peptide and the detection reagents. Subsequently the amount of phosphorylated substrate was evaluated by measurement of the resonance energy transfer from the Tb-cryptate to the streptavidine-XL665. Therefore, the fluorescence emissions at 620 nm and 665 nm after excitation at 350 nm was measured in a TR-FRET reader, e.g. a Pherastar FS (BMG Labtechnologies, Offenburg, Germany) or a Viewlux (Perkin-Elmer). The ratio of the emissions at 665 nm and at […] was taken as the measure for the amount of phosphorylated substrate. The data were normalised (enzyme reaction without inhibitor=0 inhibition, all other assay components but no enzyme=100% inhibition).
Regarding `CC1=C(C#N)C(c2cc3c(NC(=O)C(C)c4cccnc4)n[nH]c3c(C)c2F)C(C#N)=C(C)N1C` (racemic) [Example 21, (rac)-N-[5-(3,5-dicyano-1,2,6-trimethyl-1,4-dihydropyridin-4-yl)-6-fluoro-7-methyl-1H-indazol-3-yl]-2-(pyridin-3-yl)propanamide], the IC50 was 84 nM.
The figure for `CCn1nc(C)cc1C(=O)Nc1n[nH]c2c(I)c(F)c(C3C(C#N)=C(C)N(C)C(C)=C3C#N)cc12` [Example 1, N-[5-(3,5-dicyano-1,2,6-trimethyl-1,4-dihydropyridin-4-yl)-6-fluoro-7-iodo-1H-indazol-3-yl]-1-ethyl-3-methyl-1H-pyrazole-5-carboxamide] is 62.6 nM; for `CC1=C(C#N)C(c2cc3c(NC(=O)c4ccccc4Cl)n[nH]c3c(I)c2F)C(C#N)=C(C)N1C` [Example 2, 2-chloro-N-[5-(3,5-dicyano-1,2,6-trimethyl-1,4-dihydropyridin-4-yl)-6-fluoro-7-iodo-1H-indazol-3-yl]benzamide] it is 13 nM.
In the case of `CC1=C(C#N)C(c2cc3c(NC(=O)c4cn(C)nc4C(F)(F)F)n[nH]c3c(I)c2F)C(C#N)=C(C)N1C` [Example 3, N-[5-(3,5-dicyano-1,2,6-trimethyl-1,4-dihydropyridin-4-yl)-6-fluoro-7-iodo-1H-indazol-3-yl]-1-methyl-3-(trifluoromethyl)-1H-pyrazole-4-carboxamide], the IC50 turned out to be 54.3 nM.
Take `CC1=C(C#N)C(c2cc3c(NC(=O)c4ccc(OCCN5CCCC5)cc4Cl)n[nH]c3c(I)c2F)C(C#N)=C(C)N1C` [Example 4, 2-chloro-N-[5-(3,5-dicyano-1,2,6-trimethyl-1,4-dihydropyridin-4-yl)-6-fluoro-7-iodo-1H-indazol-3-yl]-4-[2-(pyrrolidin-1-yl)ethoxy]benzamide]: the IC50 turned out to be 2.7 nM.
The figure for `CCn1nc(C)cc1C(=O)Nc1n[nH]c2c(C)c(F)c(C3C(C#N)=C(C)N(C)C(C)=C3C#N)cc12` [Example 5, N-[5-(3,5-dicyano-1,2,6-trimethyl-1,4-dihydropyridin-4-yl)-6-fluoro-7-methyl-1H-indazol-3-yl]-1-ethyl-3-methyl-1H-pyrazole-5-carboxamide] is 3.74 nM.
As to `CC1=C(C#N)C(c2cc3c(NC(=O)c4ccccc4Cl)n[nH]c3c(C)c2F)C(C#N)=C(C)N1C` [Example 6, 2-chloro-N-[5-(3,5-dicyano-1,2,6-trimethyl-1,4-dihydropyridin-4-yl)-6-fluoro-7-methyl-1H-indazol-3-yl]benzamide], the IC50 turned out to be 3.65 nM.
Take `CC1=C(C#N)C(c2cc3c(NC(=O)c4c(F)cccc4F)n[nH]c3c(C)c2F)C(C#N)=C(C)N1C` [Example 7, N-[5-(3,5-dicyano-1,2,6-trimethyl-1,4-dihydropyridin-4-yl)-6-fluoro-7-methyl-1H-indazol-3-yl]-2,6-difluorobenzamide]: the IC50 was 19.6 nM.
Then `CCc1ccccc1C(=O)Nc1n[nH]c2c(C)c(F)c(C3C(C#N)=C(C)N(C)C(C)=C3C#N)cc12` [Example 8, N-[5-(3,5-dicyano-1,2,6-trimethyl-1,4-dihydropyridin-4-yl)-6-fluoro-7-methyl-1H-indazol-3-yl]-2-ethylbenzamide], with 15.1 nM; and `CC1=C(C#N)C(c2cc3c(NC(=O)c4cn(C)nc4C(F)(F)F)n[nH]c3c(C)c2F)C(C#N)=C(C)N1C` [Example 9, N-[5-(3,5-dicyano-1,2,6-trimethyl-1,4-dihydropyridin-4-yl)-6-fluoro-7-methyl-1H-indazol-3-yl]-1-methyl-3-(trifluoromethyl)-1H-pyrazole-4-carboxamide], with 12.2 nM.
For `CC1=C(C#N)C(c2cc3c(NC(=O)c4cc(F)ccc4C(F)(F)F)n[nH]c3c(C)c2F)C(C#N)=C(C)N1C` [Example 10, N-[5-(3,5-dicyano-1,2,6-trimethyl-1,4-dihydropyridin-4-yl)-6-fluoro-7-methyl-1H-indazol-3-yl]-5-fluoro-2-(trifluoromethyl)benzamide], the IC50 was determined as 26.2 nM.
The figure for `CC1=C(C#N)C(c2cc3c(NC(=O)c4c(F)cccc4Cl)n[nH]c3c(C)c2F)C(C#N)=C(C)N1C` [Example 11, 2-chloro-N-[5-(3,5-dicyano-1,2,6-trimethyl-1,4-dihydropyridin-4-yl)-6-fluoro-7-methyl-1H-indazol-3-yl]-6-fluorobenzamide] is 8.9 nM; for `CCn1cc(C(=O)Nc2n[nH]c3c(C)c(F)c(C4C(C#N)=C(C)N(C)C(C)=C4C#N)cc23)c(C)n1` [Example 12, N-[5-(3,5-dicyano-1,2,6-trimethyl-1,4-dihydropyridin-4-yl)-6-fluoro-7-methyl-1H-indazol-3-yl]-1-ethyl-3-methyl-1H-pyrazole-4-carboxamide] it is 15.7 nM; for `CC1=C(C#N)C(c2cc3c(NC(=O)c4ccc(OCCN5CCCC5)cc4)n[nH]c3c(C)c2F)C(C#N)=C(C)N1C` [Example 13, N-[5-(3,5-dicyano-1,2,6-trimethyl-1,4-dihydropyridin-4-yl)-6-fluoro-7-methyl-1H-indazol-3-yl]-4-[2-(pyrrolidin-1-yl)ethoxy]benzamide] it is 13.4 nM.
Consider `CC1=C(C#N)C(c2cc3c(NC(=O)Cc4ccc(C)nc4)n[nH]c3c(C)c2F)C(C#N)=C(C)N1C` [Example 14, N-[5-(3,5-dicyano-1,2,6-trimethyl-1,4-dihydropyridin-4-yl)-6-fluoro-7-methyl-1H-indazol-3-yl]-2-(6-methylpyridin-3-yl)acetamide], for which the IC50 was found to be 21.5 nM.
The figure for `COCCn1cc(C(=O)Nc2n[nH]c3c(C)c(F)c(C4C(C#N)=C(C)N(C)C(C)=C4C#N)cc23)c(C(F)(F)F)n1` [Example 15, N-[5-(3,5-dicyano-1,2,6-trimethyl-1,4-dihydropyridin-4-yl)-6-fluoro-7-methyl-1H-indazol-3-yl]-1-(2-methoxyethyl)-3-(trifluoromethyl)-1H-pyrazole-4-carboxamide] is 7.76 nM.
Consider `CC1=C(C#N)C(c2cc3c(NC(=O)c4cn(CCN5CCCC5)nc4C(F)(F)F)n[nH]c3c(C)c2F)C(C#N)=C(C)N1C` [Example 16, N-[5-(3,5-dicyano-1,2,6-trimethyl-1,4-dihydropyridin-4-yl)-6-fluoro-7-methyl-1H-indazol-3-yl]-1-[2-(pyrrolidin-1-yl)ethyl]-3-(trifluoromethyl)-1H-pyrazole-4-carboxamide], for which the IC50 stood at 5.71 nM.
Consider `CC1=C(C#N)C(c2cc3c(NC(=O)c4cn(CC(C)(C)O)nc4C(F)(F)F)n[nH]c3c(C)c2F)C(C#N)=C(C)N1C` [Example 17, N-[5-(3,5-dicyano-1,2,6-trimethyl-1,4-dihydropyridin-4-yl)-6-fluoro-7-methyl-1H-indazol-3-yl]-1-(2-hydroxy-2-methylpropyl)-3-(trifluoromethyl)-1H-pyrazole-4-carboxamide], for which the IC50 was 7.95 nM.
The figure for `CC1=C(C#N)C(c2cc3c(NC(=O)c4cnn(CC(C)(C)O)c4C(F)(F)F)n[nH]c3c(C)c2F)C(C#N)=C(C)N1C` [Example 18, N-[5-(3,5-dicyano-1,2,6-trimethyl-1,4-dihydropyridin-4-yl)-6-fluoro-7-methyl-1H-indazol-3-yl]-1-(2-hydroxy-2-methylpropyl)-5-(trifluoromethyl)-1H-pyrazole-4-carboxamide] is 45.4 nM; for `CC1=C(C#N)C(c2cc3c(NC(=O)c4cnn(CCN5CCCC5)c4C(F)(F)F)n[nH]c3c(C)c2F)C(C#N)=C(C)N1C` [Example 19, N-[5-(3,5-dicyano-1,2,6-trimethyl-1,4-dihydropyridin-4-yl)-6-fluoro-7-methyl-1H-indazol-3-yl]-1-[2-(pyrrolidin-1-yl)ethyl]-5-(trifluoromethyl)-1H-pyrazole-4-carboxamide] it is 37.6 nM.
